Converted amounts (≈) assume the structure as drawn.
Test: Intrinsic aqueous solubility and solubility increase in nanoparticles
Assay type: physicochemical
Settings: for solubility: aqueous medium; for increase of solubility by incorporation into the nanoparticles: versus intrinsic aqueous solubility

Structure (SMILES) | solubility | increase of solubility by incorporation into the nanoparticles
CC(C)(C)c1nc(-c2cccc(NS(=O)(=O)c3c(F)cccc3F)c2F)c(-c2ccnc(N)n2)s1 [DAB, dabrafenib] | 1 µg/mL (≈ 1.92 µM) | 1000 fold
CC(=O)O[C@@]12CO[C@@H]1C[C@H](O)[C@@]1(C)C(=O)[C@H](O)C3=C(C)[C@@H](OC(=O)[C@H](O)[C@@H](NC(=O)OC(C)(C)C)c4ccccc4)C[C@@](O)([C@@H](OC(=O)c4ccccc4)[C@H]21)C3(C)C [DTX, docetaxel] | – | 455 fold
CO[C@H]1C[C@@H]2CC[C@@H](C)[C@@](O)(O2)C(=O)C(=O)N2CCCC[C@H]2C(=O)O[C@H]([C@H](C)C[C@@H]2CC[C@@H](OCCO)[C@H](OC)C2)CC(=O)[C@H](C)/C=C(\C)[C@@H](O)[C@@H](OC)C(=O)[C@H](C)C[C@H](C)/C=C/C=C/C=C/1C [EVR, everolimus] | 9.6 µg/mL (≈ 10 µM) | 201 fold

The remaining lines, values ahead:

solubility | increase of solubility by incorporation into the nanoparticles | Structure (SMILES)
243 µg/mL (≈ 791 µM) | 8 fold | O=c1cc(N2CCOCC2)oc2c(-c3ccccc3)cccc12 [LY, LY294002]
6 µg/mL (≈ 9.75 µM) | 221 fold | CC(=O)Nc1cccc(-n2c(=O)n(C3CC3)c(=O)c3c(Nc4ccc(I)cc4F)n(C)c(=O)c(C)c32)c1 [TRA, trametinib]

Source: patent US10016422B2, “Nanocarrier drug delivery platform” (Oregon State University, priority 2015, dated 2018)
